Test results taken from PMC6458216, “In vitro reconstitution and characterisation of the oxidative D-xylose pathway for production of organic acids and alcohols” (AMB Express, 2019).

Assays:
Format in all cases: biochemical
Cc XylC = biological target: T1, Cc XylC (Caulobacter vibrioides, UniProt Q9A9Z1); test: CD ([…] nm) and 1H-NMR lactone ring-opening assay; details: CD: 1 mM lactone, 10 mM Tris-HCl pH 6-8, 25 °C; NMR: 2 mM lactone, pH 6.8, 22 °C, 100 µM metal ions or EDTA
T1 construct: full length, untagged (C-terminal Strep-tag II removed), synthetic codon-optimised gene in E. coli BL21(DE3), DEAE purified, mainly monomer
T1 sequence (Q9A9Z1 whole entry): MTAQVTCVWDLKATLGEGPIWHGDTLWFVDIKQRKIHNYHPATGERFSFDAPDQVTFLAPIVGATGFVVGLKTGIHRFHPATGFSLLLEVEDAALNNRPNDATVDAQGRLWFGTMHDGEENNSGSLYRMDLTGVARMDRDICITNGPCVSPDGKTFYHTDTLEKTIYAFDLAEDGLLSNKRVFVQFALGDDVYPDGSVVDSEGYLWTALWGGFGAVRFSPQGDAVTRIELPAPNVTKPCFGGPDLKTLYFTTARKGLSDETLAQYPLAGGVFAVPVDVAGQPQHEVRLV

Ec FucO = biological target: T2, Ec FucO (Escherichia coli, UniProt P0A9S1); test: purified enzyme within 4-enzyme cascade, NADH oxidation at […] nm; details: glycolaldehyde formed by Ec YagE from 1 mM xylonolactone via cascade; 2 mM NADH, 50 mM Tris-HCl pH 7.0, 22 °C
T2 sequence (P0A9S1 1-382): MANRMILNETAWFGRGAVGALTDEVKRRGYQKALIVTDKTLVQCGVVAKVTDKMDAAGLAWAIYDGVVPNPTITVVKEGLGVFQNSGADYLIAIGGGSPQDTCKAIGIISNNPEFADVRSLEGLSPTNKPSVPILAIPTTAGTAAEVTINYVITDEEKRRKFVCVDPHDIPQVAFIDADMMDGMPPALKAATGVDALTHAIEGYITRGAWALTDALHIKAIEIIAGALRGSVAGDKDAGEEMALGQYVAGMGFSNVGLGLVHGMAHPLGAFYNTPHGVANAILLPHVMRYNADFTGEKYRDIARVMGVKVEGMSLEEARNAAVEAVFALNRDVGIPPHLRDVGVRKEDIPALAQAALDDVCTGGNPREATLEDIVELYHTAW

Ab AraE = Ab AraE (Azospirillum brasilense, UniProt Q1JUP4); test: NADH formation at […] nm, steady-state kinetics; details: 50 mM Tris-HCl pH 7.0, 2 mM NAD+, 1 mM DTT, glycolaldehyde 0-2 mM
Ab AraE, sequence (Q1JUP4 whole entry): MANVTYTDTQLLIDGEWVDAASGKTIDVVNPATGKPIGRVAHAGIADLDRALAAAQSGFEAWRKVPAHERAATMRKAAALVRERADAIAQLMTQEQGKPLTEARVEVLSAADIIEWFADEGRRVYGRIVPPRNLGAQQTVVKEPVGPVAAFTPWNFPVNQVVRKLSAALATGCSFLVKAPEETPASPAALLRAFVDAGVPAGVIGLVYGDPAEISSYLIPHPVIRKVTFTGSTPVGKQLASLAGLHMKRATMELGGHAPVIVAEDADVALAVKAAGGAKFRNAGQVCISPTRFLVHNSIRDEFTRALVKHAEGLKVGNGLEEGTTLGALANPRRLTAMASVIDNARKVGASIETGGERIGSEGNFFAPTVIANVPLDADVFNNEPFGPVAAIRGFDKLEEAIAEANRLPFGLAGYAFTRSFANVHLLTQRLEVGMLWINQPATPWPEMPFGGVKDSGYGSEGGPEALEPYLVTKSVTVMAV

Ec AldA = Ec AldA (Escherichia coli, UniProt P25553); test: NADH formation at […] nm, steady-state kinetics; details: 50 mM Tris-HCl pH 7.0, 2 mM NAD+, 1 mM DTT, glycolaldehyde 0-2 mM
Ec AldA, sequence (P25553 whole entry): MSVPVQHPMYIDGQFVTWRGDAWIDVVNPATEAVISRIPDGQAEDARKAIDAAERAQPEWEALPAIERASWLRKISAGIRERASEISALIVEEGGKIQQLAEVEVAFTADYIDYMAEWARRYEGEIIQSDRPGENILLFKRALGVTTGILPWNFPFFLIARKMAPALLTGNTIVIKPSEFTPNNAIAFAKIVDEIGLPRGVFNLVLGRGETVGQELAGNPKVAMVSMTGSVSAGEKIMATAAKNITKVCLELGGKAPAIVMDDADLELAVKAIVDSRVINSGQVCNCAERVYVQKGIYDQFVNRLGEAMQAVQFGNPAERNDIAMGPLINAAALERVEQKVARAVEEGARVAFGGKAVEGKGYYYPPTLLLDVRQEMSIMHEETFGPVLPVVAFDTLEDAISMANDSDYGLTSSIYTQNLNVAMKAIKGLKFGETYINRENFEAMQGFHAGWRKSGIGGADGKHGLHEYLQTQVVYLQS

SMILES	CD (220 nm) and 1H-NMR lactone ring-opening assay (Cc XylC)	purified enzyme within 4-enzyme cascade, NADH oxidation at 340 nm (Ec FucO)	NADH formation at 340 nm, steady-state kinetics (Ab AraE)	NADH formation at 340 nm, steady-state kinetics (Ec AldA)
O=C1O[C@H](CO)[C@H](O)[C@H]1O [D-xylono-1,4-lactone]	Cc XylC was able to open the xylonolactone without addition of any metal	–	–	–
NC(=O)C1=CN([C@@H]2O[C@H](COP(=O)(O)OP(=O)(O)OC[C@H]3O[C@@H](n4cnc5c(N)ncnc54)[C@H](O)[C@@H]3O)[C@@H](O)[C@H]2O)C=CC1 [NADH]	–	the production of ethylene glycol was followed through generation of NAD^+	–	–
O=CCO [glycolaldehyde]	–	an increase of the enzyme concentration resulted in an increase in the production levels	we compare the glycolaldehyde dependent activity of Ec AldA and Ab AraE	we compare the glycolaldehyde dependent activity of Ec AldA and Ab AraE
